Experimental findings from paper PMC5218480 (PLoS ONE, 2017) are described below.

In the assay the test system is MV-4-11 cells. The assay is described as follows: Gene expression microarray analysis (Affymetrix PrimeView) and GSEA. On the set-up: RFU PODN (11730768_x_at) / Fold change /veh PODN (11730768_x_at) / RFU LINC00158 (11744669_a_at) / Fold change /veh LINC00158 (11744669_a_at) / RFU DUSP10 (11751237_a_at) / Fold change /veh DUSP10 (11751237_a_at) / RFU ID3 (11757404_x_at) / Fold change /veh ID3 (11757404_x_at) / RFU PLEKHG5 (11737974_s_at) / Fold change /veh PLEKHG5 (11737974_s_at) / RFU LRRC4B (11730491_at) / Fold change /veh LRRC4B (11730491_at) / RFU GIMAP4 (11747438_a_at) / Fold change /veh GIMAP4 (11747438_a_at) / RFU KRT8 (11758183_x_at) / Fold change /veh KRT8 (11758183_x_at) / RFU CNN1 (11734310_a_at) / Fold change /veh CNN1 (11734310_a_at) / RFU VPS37D (11726825_at) / Fold change /veh VPS37D (11726825_at) / RFU C10orf10 (11716522_x_at) / Fold change /veh C10orf10 (11716522_x_at) / RFU KIR2DL2 /// KIR2DL4 /// KIR2DL5A /// KIR2DL5B /// KIR2DS1 /// KIR2DS2 /// KIR2DS3 /// KIR2DS4 /// KIR3DL3 /// KIR3DL3 /// KIR3DS1 (11738374_at) / Fold change /veh KIR2DL2 /// KIR2DL4 /// KIR2DL5A /// KIR2DL5B /// KIR2DS1 /// KIR2DS2 /// KIR2DS3 /// KIR2DS4 /// KIR3DL3 /// KIR3DL3 /// KIR3DS1 (11738374_at) / RFU C1QL1 (11718748_at) / Fold change /veh C1QL1 (11718748_at) / RFU TMPRSS4 (11747572_a_at) / Fold change /veh TMPRSS4 (11747572_a_at) / RFU HAMP (11756126_x_at) / Fold change /veh HAMP (11756126_x_at) / RFU RNFT2 (11725882_a_at) / Fold change /veh RNFT2 (11725882_a_at) / RFU NR4A2 (11747474_a_at) / Fold change /veh NR4A2 (11747474_a_at) / RFU ABCC12 (11746883_a_at) / Fold change /veh ABCC12 (11746883_a_at) / RFU TMEM136 (11760407_x_at) / Fold change /veh TMEM136 (11760407_x_at) / RFU CLDN22 /// WWC2 (11732394_at) / Fold change /veh CLDN22 /// WWC2 (11732394_at) / RFU HLA-DPB1 (11760878_x_at) / Fold change /veh HLA-DPB1 (11760878_x_at) / RFU SPINT1 (11716480_a_at) / Fold change /veh SPINT1 (11716480_a_at) / RFU GAP43 (11754022_s_at) / Fold change /veh GAP43 (11754022_s_at) / RFU A4GNT (11735810_at) / Fold change /veh A4GNT (11735810_at) / RFU PRB3 (11715151_x_at) / Fold change /veh PRB3 (11715151_x_at) / RFU TUBB4B (11761932_at) / Fold change /veh TUBB4B (11761932_at) / RFU CAPN14 (11732068_a_at) / Fold change /veh CAPN14 (11732068_a_at) / RFU TMCC2 (11721928_a_at) / Fold change /veh TMCC2 (11721928_a_at) / RFU IRGQ (11745062_a_at) / Fold change /veh IRGQ (11745062_a_at) / RFU FAM174B (11720279_a_at) / Fold change /veh FAM174B (11720279_a_at) / RFU TMPRSS4 (11748680_a_at) / Fold change /veh TMPRSS4 (11748680_a_at) / RFU FAM212B (11763350_a_at) / Fold change /veh FAM212B (11763350_a_at) / RFU PLEKHG5 (11743358_a_at) / Fold change /veh PLEKHG5 (11743358_a_at) / RFU ZSCAN30 (11745921_a_at) / Fold change /veh ZSCAN30 (11745921_a_at) / RFU CMKLR1 (11741424_a_at) / Fold change /veh CMKLR1 (11741424_a_at) / RFU LOC101060620 /// MAPK8IP1 (11723275_at) / Fold change /veh LOC101060620 /// MAPK8IP1 (11723275_at) / RFU SPTSSB (11747773_x_at) / Fold change /veh SPTSSB (11747773_x_at) / RFU PRSS12 (11739890_at) / Fold change /veh PRSS12 (11739890_at) / RFU BIN1 (11741810_x_at) / Fold change /veh BIN1 (11741810_x_at) / RFU WNT11 (11732464_a_at) / Fold change /veh WNT11 (11732464_a_at) / RFU C10orf10 (11716521_a_at) / Fold change /veh C10orf10 (11716521_a_at) / RFU C5orf56 (11738089_at) / Fold change /veh C5orf56 (11738089_at) / RFU CYB561 (11721691_x_at) / Fold change /veh CYB561 (11721691_x_at) / RFU ANKRD19P (11752326_a_at) / Fold change /veh ANKRD19P (11752326_a_at) / RFU OR2T12 /// OR2T33 /// OR2T8 (11738714_s_at) / Fold change /veh OR2T12 /// OR2T33 /// OR2T8 (11738714_s_at) / RFU VCAN (11748164_a_at) / Fold change /veh VCAN (11748164_a_at) / RFU JSRP1 (11732532_at) / Fold change /veh JSRP1 (11732532_at) / RFU KRTAP10-11 (11738290_x_at) / Fold change /veh KRTAP10-11 (11738290_x_at) / RFU MYO3A (11730013_a_at) / Fold change /veh MYO3A (11730013_a_at) / RFU EBF3 (11725865_a_at) / Fold change /veh EBF3 (11725865_a_at) / RFU CAMK2N1 (11719241_x_at) / Fold change /veh CAMK2N1 (11719241_x_at) / RFU C5orf56 (11738088_a_at) / Fold change /veh C5orf56 (11738088_a_at) / RFU OLFML3 (11715873_a_at) / Fold change /veh OLFML3 (11715873_a_at) / RFU LOC100653217 /// NTM (11731650_a_at) / Fold change /veh LOC100653217 /// NTM (11731650_a_at) / RFU MAPK11 (11762145_a_at) / Fold change /veh MAPK11 (11762145_a_at) / RFU FIZ1 (11724087_x_at) / Fold change /veh FIZ1 (11724087_x_at) / RFU OASL (11726364_x_at) / Fold change /veh OASL (11726364_x_at) / RFU SOX15 (11748057_x_at) / Fold change /veh SOX15 (11748057_x_at) / RFU CD79A (11719716_a_at) / Fold change /veh CD79A (11719716_a_at) / RFU HIST1H1D (11736915_at) / Fold change /veh HIST1H1D (11736915_at) / RFU CASKIN2 (11723855_a_at) / Fold change /veh CASKIN2 (11723855_a_at) / RFU LOC730098 (11760151_x_at) / Fold change /veh LOC730098 (11760151_x_at) / RFU OR4N2 (11742367_at) / Fold change /veh OR4N2 (11742367_at) / RFU PRRT2 (11749266_a_at) / Fold change /veh PRRT2 (11749266_a_at) / RFU SNX32 (11753110_a_at) / Fold change /veh SNX32 (11753110_a_at) / RFU CDHR5 (11726645_a_at) / Fold change /veh CDHR5 (11726645_a_at) / RFU RCAN1 (11760418_a_at) / Fold change /veh RCAN1 (11760418_a_at) / RFU FAM167A (11723789_a_at) / Fold change /veh FAM167A (11723789_a_at) / RFU FAM26E (11764081_at) / Fold change /veh FAM26E (11764081_at) / RFU ISYNA1 (11749810_s_at) / Fold change /veh ISYNA1 (11749810_s_at) / RFU ACY1 (11761880_at) / Fold change /veh ACY1 (11761880_at) / RFU 11764098_at / Fold change /veh 11764098_at / RFU SAMD14 (11745864_x_at) / Fold change /veh SAMD14 (11745864_x_at) / RFU NPB (11741838_a_at) / Fold change /veh NPB (11741838_a_at) / RFU TMPRSS6 (11731388_a_at) / Fold change /veh TMPRSS6 (11731388_a_at) / RFU KRTAP10-2 (11738614_at) / Fold change /veh KRTAP10-2 (11738614_at) / RFU ARHGAP8 /// PRR5-ARHGAP8 (11727945_x_at) / Fold change /veh ARHGAP8 /// PRR5-ARHGAP8 (11727945_x_at) / RFU KRTAP5-7 /// NADSYN1 (11734609_at) / Fold change /veh KRTAP5-7 /// NADSYN1 (11734609_at) / RFU RASL12 (11751679_a_at) / Fold change /veh RASL12 (11751679_a_at) / RFU CDKN2B (11736163_a_at) / Fold change /veh CDKN2B (11736163_a_at) / RFU PRF1 (11729649_at) / Fold change /veh PRF1 (11729649_at) / RFU, ZNF638 /// ZNF638-IT1 / Fold change vs veh, ZNF638 /// ZNF638-IT1 / RFU, PANK3 / Fold change vs veh, PANK3 / RFU, SH3YL1 / Fold change vs veh, SH3YL1 / RFU, ZEB2 / Fold change vs veh, ZEB2 / RFU, NRIP1 / Fold change vs veh, NRIP1 / RFU, PTTG1IP / Fold change vs veh, PTTG1IP / RFU, CAPN2 / Fold change vs veh, CAPN2 / RFU, MED14 / Fold change vs veh, MED14 / RFU, SNORA58 / Fold change vs veh, SNORA58 / RFU, C1orf63 / Fold change vs veh, C1orf63 / RFU, LRRFIP1 / Fold change vs veh, LRRFIP1 / RFU, NDUFAF7 / Fold change vs veh, NDUFAF7 / RFU, SLC12A2 / Fold change vs veh, SLC12A2 / RFU, IBTK / Fold change vs veh, IBTK / RFU, ESF1 / Fold change vs veh, ESF1 / Fold change vs veh, TMEM50B / RFU, TAOK1 / Fold change vs veh, TAOK1 / RFU, ACBD3 / Fold change vs veh, ACBD3 / RFU, TMA16 / Fold change vs veh, TMA16 / RFU, RWDD3 / Fold change vs veh, RWDD3 / RFU, BCAT1 / Fold change vs veh, BCAT1 / RFU, EDEM3 / Fold change vs veh, EDEM3 / RFU, TMEM33 / Fold change vs veh, TMEM33 / RFU, WDR75 / Fold change vs veh, WDR75 / RFU, AHCTF1 / Fold change vs veh, AHCTF1 / RFU, TFRC / Fold change vs veh, TFRC / RFU, ZDHHC17 / Fold change vs veh, ZDHHC17 / RFU, NOM1 / Fold change vs veh, NOM1 / RFU, ARL8B / Fold change vs veh, ARL8B / RFU, ZBTB11 / Fold change vs veh, ZBTB11 / RFU, TAMM41 / Fold change vs veh, TAMM41 / RFU, KIAA1704 /// LOC100996395 / Fold change vs veh, KIAA1704 /// LOC100996395 / RFU, ING1 / Fold change vs veh, ING1 / RFU, TRMT61B / Fold change vs veh, TRMT61B / RFU, FUBP3 / Fold change vs veh, FUBP3 / RFU, TP53 / Fold change vs veh, TP53 / RFU, TNKS2 / Fold change vs veh, TNKS2 / RFU, ZFP14 / Fold change vs veh, ZFP14 / RFU, ACTR2 / Fold change vs veh, ACTR2 / RFU, PPP3R1 / Fold change vs veh, PPP3R1 / RFU, PIK3R1 / Fold change vs veh, PIK3R1 / RFU, HNRNPA1 / Fold change vs veh, HNRNPA1 / RFU, RNF170 / Fold change vs veh, RNF170 / RFU, ZNF28 / Fold change vs veh, ZNF28 / RFU, RNGTT / Fold change vs veh, RNGTT / RFU, OGT / Fold change vs veh, OGT / RFU, BRD1 / Fold change vs veh, BRD1 / RFU, MARS / Fold change vs veh, MARS / RFU, ZNF655 / Fold change vs veh, ZNF655 / RFU, FAHD1 / Fold change vs veh, FAHD1 / RFU, BDP1 / Fold change vs veh, BDP1 / RFU, LRRCC1 / Fold change vs veh, LRRCC1 / RFU, ARID1A / Fold change vs veh, ARID1A / RFU, ZNF146 / Fold change vs veh, ZNF146 / RFU, ZNF330 / Fold change vs veh, ZNF330 / RFU, GPN3 / Fold change vs veh, GPN3 / RFU, C9orf123 / Fold change vs veh, C9orf123 / RFU, N4BP2L2 / Fold change vs veh, N4BP2L2 / RFU, ARFIP1 / Fold change vs veh, ARFIP1 / RFU, FAM179B / Fold change vs veh, FAM179B / RFU, BCL10 / Fold change vs veh, BCL10 / RFU, UHRF1BP1L / Fold change vs veh, UHRF1BP1L / RFU, BET1 / Fold change vs veh, BET1 / RFU, CNOT2 / Fold change vs veh, CNOT2 / RFU, ZNF268 / Fold change vs veh, ZNF268 / Fold change vs veh, ZNF507 / RFU, DGCR2 / Fold change vs veh, DGCR2 / RFU, WDSUB1 / Fold change vs veh, WDSUB1 / Fold change vs veh, HSP90B1 /// MIR3652 / RFU, ADSS / Fold change vs veh, ADSS / RFU, GK / Fold change vs veh, GK / RFU, ZNF148 / Fold change vs veh, ZNF148 / RFU, TAF9 / Fold change vs veh, TAF9 / RFU, SLC1A5 / Fold change vs veh, SLC1A5 / RFU, SLMO2 / Fold change vs veh, SLMO2 / RFU, ABCC4 / Fold change vs veh, ABCC4 / RFU, LOC101060439 /// RAP1B / Fold change vs veh, LOC101060439 /// RAP1B / RFU, RFX7 / Fold change vs veh, RFX7 / RFU, GTPBP10 / Fold change vs veh, GTPBP10 / RFU, CNEP1R1 / Fold change vs veh, CNEP1R1 / RFU, BIVM-ERCC5 /// ERCC5 / Fold change vs veh, BIVM-ERCC5 /// ERCC5 / RFU, ILF3 / Fold change vs veh, ILF3 / RFU 11762660_at / Fold change /veh 11762660_at / RFU VCAN (11757783_s_at) / Fold change /veh VCAN (11757783_s_at) / RFU DDX43 (11728927_at) / Fold change /veh DDX43 (11728927_at) / RFU KRT8 (11758188_x_at) / Fold change /veh KRT8 (11758188_x_at) / RFU NKD1 (11759106_at) / Fold change /veh NKD1 (11759106_at) / RFU SRD5A1 (11742802_a_at) / Fold change /veh SRD5A1 (11742802_a_at) / RFU TPSAB1 /// TPSB2 (11721975_s_at) / Fold change /veh TPSAB1 /// TPSB2 (11721975_s_at) / RFU GSTM3 (11746129_a_at) / Fold change /veh GSTM3 (11746129_a_at) / RFU IL23R (11737362_x_at) / Fold change /veh IL23R (11737362_x_at) / RFU TMEM51 (11727254_a_at) / Fold change /veh TMEM51 (11727254_a_at) / RFU PIWIL2 (11732686_x_at) / Fold change /veh PIWIL2 (11732686_x_at) / RFU ORM1 (11744905_x_at) / Fold change /veh ORM1 (11744905_x_at) / RFU CCDC152 (11743942_at) / Fold change /veh CCDC152 (11743942_at) / RFU ECM1 (11717891_a_at) / Fold change /veh ECM1 (11717891_a_at) / RFU IL23R (11748794_a_at) / Fold change /veh IL23R (11748794_a_at) / RFU TNFAIP8L3 (11732012_x_at) / Fold change /veh TNFAIP8L3 (11732012_x_at) / RFU MBOAT4 (11741988_at) / Fold change /veh MBOAT4 (11741988_at) / RFU 11764193_at / Fold change /veh 11764193_at / RFU TMEM53 (11763286_at) / Fold change /veh TMEM53 (11763286_at) / RFU MAGEB2 (11727129_at) / Fold change /veh MAGEB2 (11727129_at) / RFU TMEM200A (11744735_a_at) / Fold change /veh TMEM200A (11744735_a_at) / RFU CCDC152 (11751479_a_at) / Fold change /veh CCDC152 (11751479_a_at) / RFU FAM211A (11726209_a_at) / Fold change /veh FAM211A (11726209_a_at) / RFU RGS16 (11746705_a_at) / Fold change /veh RGS16 (11746705_a_at) / RFU VCAN (11755009_s_at) / Fold change /veh VCAN (11755009_s_at) / RFU RHOB (11743442_s_at) / Fold change /veh RHOB (11743442_s_at) / RFU RGS16 (11720943_a_at) / Fold change /veh RGS16 (11720943_a_at) / RFU RGS16 (11720944_at) / Fold change /veh RGS16 (11720944_at) / RFU, VPS4B / Fold change vs veh, VPS4B / RFU, CREB1 / Fold change vs veh, CREB1 / RFU, DNAJC13 / Fold change vs veh, DNAJC13 / RFU, GNAQ / Fold change vs veh, GNAQ / RFU, CDK5R1 / Fold change vs veh, CDK5R1 / RFU, ZRANB3 / Fold change vs veh, ZRANB3 / RFU, CUL4A / Fold change vs veh, CUL4A / RFU, CCNY / Fold change vs veh, CCNY / RFU, UFL1 / Fold change vs veh, UFL1 / RFU, COG3 / Fold change vs veh, COG3 / RFU, DIAPH2 / Fold change vs veh, DIAPH2 / RFU, SKA2 / Fold change vs veh, SKA2 / RFU, AFF3 / Fold change vs veh, AFF3 / RFU, LMF1 / Fold change vs veh, LMF1 / RFU, IPO11 / Fold change vs veh, IPO11 / RFU, DFFB / Fold change vs veh, DFFB / RFU, FOXP1 / Fold change vs veh, FOXP1 / RFU, CARD8 / Fold change vs veh, CARD8 / RFU, STRN3 / Fold change vs veh, STRN3 / RFU, ADK / Fold change vs veh, ADK / RFU, RASSF2 / Fold change vs veh, RASSF2 / RFU, WIPF1 / Fold change vs veh, WIPF1 / RFU, LARP1B / Fold change vs veh, LARP1B / RFU, RASA1 / Fold change vs veh, RASA1 / RFU, RB1 / Fold change vs veh, RB1 / RFU, PPFIA1 / Fold change vs veh, PPFIA1 / RFU, MAT2A / Fold change vs veh, MAT2A / RFU, CCT5 / Fold change vs veh, CCT5 / RFU, WDR92 / Fold change vs veh, WDR92 / RFU, CUX1 / Fold change vs veh, CUX1 / RFU, TTC7A / Fold change vs veh, TTC7A / RFU, TMEM135 / Fold change vs veh, TMEM135 / RFU, DEPTOR / Fold change vs veh, DEPTOR / RFU, CPM / Fold change vs veh, CPM / RFU, DNAJB6 / Fold change vs veh, DNAJB6 / RFU, CACNA2D3 / Fold change vs veh, CACNA2D3 / RFU, DTX4 / Fold change vs veh, DTX4 / RFU, TFCP2 / Fold change vs veh, TFCP2 / RFU, GMCL1 /// GMCL1P1 / Fold change vs veh, GMCL1 /// GMCL1P1 / RFU, AEBP2 / Fold change vs veh, AEBP2 / RFU, SNHG1 /// SNORD22 /// SNORD25 /// SNORD26 /// SNORD27 /// SNORD28 /// SNORD29 /// SNORD31 / Fold change vs veh, SNHG1 /// SNORD22 /// SNORD25 /// SNORD26 /// SNORD27 /// SNORD28 /// SNORD29 /// SNORD31 / Fold change (Aza/veh), C12orf56 (ProbeSet 11735607_a_at) / Fold change (ACY-1035/veh), C12orf56 (ProbeSet 11735607_a_at) / Fold change (Aza/veh), FGFR1OP (ProbeSet 11751329_s_at) / Fold change (ACY-1035/veh), FGFR1OP (ProbeSet 11751329_s_at) / Fold change (Aza/veh), VPS36 (ProbeSet 11739960_a_at) / Fold change (ACY-1035/veh), VPS36 (ProbeSet 11739960_a_at) / RFU SYPL1 (11715823_x_at) / Fold change /veh SYPL1 (11715823_x_at) / RFU IGFBP7 (11715501_s_at) / Fold change /veh IGFBP7 (11715501_s_at) / RFU REEP3 (11722064_at) / Fold change /veh REEP3 (11722064_at) / RFU IGLL1 (11728026_x_at) / Fold change /veh IGLL1 (11728026_x_at): dose or concentration left out as unconfirmed. To be noted: ProbeSet 11764057_s_at; LIST B. It is filed as cell-based, human.

As for `Nc1ncn([C@@H]2O[C@H](CO)[C@@H](O)[C@H]2O)c(=O)n1` [azacitidine], the “Fold change vs veh, C1orf63” value is on record as 1.09.
